In patent US9090596B2, “Disubstituted 3,4-diamino-3-cyclobutene-1,2-dione compounds for use in the treatment of chemokine-mediated pathologies” (GALDERMA RESEARCH & DEVELOPMENT, priority 2011, dated 2015):

Legend:
CXCR1 receptor = CXCR1 receptor (Homo sapiens (Human), UniProt P25024); test: β-arrestin 2 recruitment test, U2OS hCXCR1 β-arrestin cells stimulated with CXCL8; type: cell-based; details: CXCL8 stimulation
Description: (§1) The in vitro affinity of the compounds of the present invention for the CXCR1 and CXCR2 receptors was determined on a functional test of the β-arrestin recruitment type after receptor activation.
(§2) β-Arrestin Recruitment Assay:
(§3) “PathHunter HEK293-CXCR2” or “U2OS hCXCR1 β-arrestin” cells (DiscoveRx Corporation) were seeded overnight at 10 000 cells/well (384-well format) in 20 μl of Opti MEM I medium. A preincubation with the antagonist or the vehicle for 30 min at 37° C. and 5% CO2 was followed by 60 minutes of stimulation with CXCL8 at 37° C. and 5% CO2. The cells were then placed at ambient temperature for 30 minutes. The PathHunter detection reagent (DiscoveRx Corporation) was added. […] The data were analyzed by means of a non-linear curve procedure using the XLFit4 exploitation software (IDBS) and the IC50 values were determined.

CXCR2 receptor = CXCR2 receptor (Homo sapiens (Human), UniProt P25025); test: β-arrestin 2 recruitment test, PathHunter HEK293-CXCR2 cells stimulated with CXCL8; type: cell-based; details: CXCL8 stimulation
Description: as §1, §2, §3

Sequence of CXCR1 receptor (P25024 whole entry): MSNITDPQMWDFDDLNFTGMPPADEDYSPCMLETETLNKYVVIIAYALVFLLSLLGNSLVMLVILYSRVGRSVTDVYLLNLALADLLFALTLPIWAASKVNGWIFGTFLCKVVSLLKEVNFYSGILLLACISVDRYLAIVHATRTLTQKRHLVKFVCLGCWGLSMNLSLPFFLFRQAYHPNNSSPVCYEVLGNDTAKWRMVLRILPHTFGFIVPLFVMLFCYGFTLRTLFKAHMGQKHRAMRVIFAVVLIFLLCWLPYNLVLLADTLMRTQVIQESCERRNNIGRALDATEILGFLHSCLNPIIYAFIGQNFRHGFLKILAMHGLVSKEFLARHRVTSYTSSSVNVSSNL
Sequence of CXCR2 receptor (P25025 whole entry): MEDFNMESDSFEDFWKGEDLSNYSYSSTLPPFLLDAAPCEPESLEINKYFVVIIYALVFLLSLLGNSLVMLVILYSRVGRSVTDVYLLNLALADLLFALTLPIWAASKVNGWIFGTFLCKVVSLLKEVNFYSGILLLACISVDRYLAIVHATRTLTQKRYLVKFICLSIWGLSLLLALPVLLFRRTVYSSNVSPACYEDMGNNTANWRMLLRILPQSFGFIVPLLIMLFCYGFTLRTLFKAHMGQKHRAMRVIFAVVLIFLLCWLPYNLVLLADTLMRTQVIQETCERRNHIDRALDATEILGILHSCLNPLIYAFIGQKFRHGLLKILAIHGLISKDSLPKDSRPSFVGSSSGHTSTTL

Row | Compound | IC50 (CXCR1 receptor) [nM] | IC50 (CXCR2 receptor) [nM]
1 | Cc1ccc(C(Nc2c(Nc3cccc(C(=O)N4CC[C@@H](O)C4)c3O)c(=O)c2=O)C2(C)COC2)o1 (stereo partly drawn) [Example 5, 3-[2-hydroxy-3-((R)-3-hydroxypyrrolidine-1-carbonyl)phenylamino]-4-{[(5-methylfuran-2-yl)-(3-methyloxetan-3-yl)methyl]amino}cyclobut-3-ene-1,2-dione] | 2620 | 341
2 | Cc1ccc(C(Nc2c(Nc3cccc(C(=O)N4CC[C@H](O)C4)c3O)c(=O)c2=O)C2(C)COC2)o1 (stereo partly drawn) [Example 6, 3-[2-hydroxy-3-((S)-3-hydroxypyrrolidine-1-carbonyl)phenylamino]-4-{[(5-methylfuran-2-yl)-(3-methyloxetan-3-yl)methyl]amino}cyclobut-3-ene-1,2-dione] | 2840 | 1090
3 | Cc1ccc(C(Nc2c(Nc3cccc(C(=O)C(C)C)c3O)c(=O)c2=O)C2(C)COC2)o1 (centres unmarked) [Example 12, 3-(2-hydroxy-3-isobutyrylphenylamino)-4-{[(5-methylfuran-2-yl)-(3-methyloxetan-3-yl)methyl]amino}cyclobut-3-ene-1,2-dione] | 10000 | 100
4 | Cc1ccc(C(Nc2c(Nc3cccc(C(=O)N4CCOCC4)c3O)c(=O)c2=O)C2(C)COC2)o1 (centres unmarked) [Example 15, 3-[2-hydroxy-3-(morpholine-4-carbonyl)phenylamino]-4-{[(5-methylfuran-2-yl)-(3-methyloxetan-3-yl)methyl]amino}cyclobut-3-ene-1,2-dione] | 3170 | 626
5 | Cc1ccc(C(Nc2c(Nc3cccn(C)c3=O)c(=O)c2=O)C2(C)COC2)o1 (centres unmarked) [Example 19, 3-{[(5-methylfuran-2-yl)-(3-methyloxetan-3-yl)methyl]amino}-4-(1-methyl-2-oxo-1,2-dihydropyridin-3-ylamino)cyclobut-3-ene-1,2-dione] | 4960 | 394
6 | COc1ccc(C(Nc2c(Nc3cccc(C(=O)N(C)C)c3O)c(=O)c2=O)C2(C)COC2)cc1 (centres unmarked) [Example 29, 3-(2-{[(3-methyloxetan-3-yl)-(4-methoxyphenyl)methyl]amino}-3,4-dioxocyclobut-1-enylamino)-2-hydroxy-N,N-dimethylbenzamide] | – | 433

The remaining lines, values ahead:

Row | IC50 (CXCR1 receptor) [nM] | IC50 (CXCR2 receptor) [nM] | Compound
7 | 1150 | 106 | CCC1(C(Nc2c(Nc3cccc(C(=O)N(C)C)c3O)c(=O)c2=O)c2ccc(C)o2)COC1 (centres unmarked) [Example 3, 3-(2-{[(3-ethyloxetan-3-yl)-(5-methylfuran-2-yl)methyl]amino}-3,4-dioxocyclobut-1-enylamino)-2-hydroxy-N,N-dimethylbenzamide]
8 | 666 | 60 | COC(=O)[C@@H]1CCCN1C(=O)c1cccc(Nc2c(N[C@@H](c3ccc(C)o3)C3(C)COC3)c(=O)c2=O)c1O [Example 9, methyl (S)-1-[2-hydroxy-3-(2-{[(R)-(5-methylfuran-2-yl)-(3-methyloxetan-3-yl)methyl]amino}-3,4-dioxocyclobut-1-enylamino)benzoyl]pyrrolidine-2-carboxylate]
9 | 1300 | 262 | Cc1ccc(C(Nc2c(Nc3cccc(C(=O)N4CCCC4)c3O)c(=O)c2=O)C2(C)COC2)o1 (centres unmarked) [Example 14, 3-[2-hydroxy-3-(pyrrolidine-1-carbonyl)phenylamino]-4-{[(5-methylfuran-2-yl)-(3-methyloxetan-3-yl)methyl]amino}cyclobut-3-ene-1,2-dione]
10 | 6620 | 335 | Cc1ccc(C(Nc2c(Nc3cccnc3O)c(=O)c2=O)C2(C)COC2)o1 (centres unmarked) [Example 20, 3-(2-hydroxypyridin-3-ylamino)-4-{[(5-methylfuran-2-yl)-(3-methyloxetan-3-yl)methyl]amino}-cyclobut-3-ene-1,2-dione]
11 | – | 311 | Cc1ccc(C(Nc2c(Nc3cccc(C#N)c3O)c(=O)c2=O)C2(C)COC2)o1 (centres unmarked) [Example 42, 2-hydroxy-3-(2-{[(5-methylfuran-2-yl)-(3-methyloxetan-3-yl)methyl]amino}-3,4-dioxocyclobut-1-enylamino)benzonitrile]
